# Test results published in PMC6259918, “Antitrypanosomal Activity of Novel Benzaldehyde-Thiosemicarbazone Derivatives from Kaurenoic Acid ^†” (Molecules, 2011).
# Like-named read-outs stand apart in the source and are kept apart here.
# Columns and labels:
# [1] = Cytotoxicity assay (sulforhodamine B); format: cell-based; settings: rhesus monkey, LLMCK2 cells, 96 h incubation, mean ± SD
# Procedure: The cytotoxic effect was evaluated against LLMCK2 cells in 96-well plates. A suspension of 2.5 × 10^4 cells was added to each well and left to grow as a monolayer for 24 h at 37 °C in a 5% CO2/air mixture. After this period, different concentrations of the synthetic compounds and kaurenoic acid (10 to 100 µg/mL) were added to the wells, and the plate was incubated for 96 h under the same conditions described above. The cells were fixed in 10% trichloroacetic acid at 4 °C for 1 h, washed five times with distilled water, and allowed to dry at room temperature. A solution of 4% sulforhodamine B (in 1% acetic acid) was added to each well, and the plate was kept protected from light for 30 min at 4 °C. The wells were then washed four times with 1% acetic acid, an aliquot (150 µL) of 10 mM Tris-base was added, and the aliquot was homogenized for 15 min. The absorbance was read at 530 nm in a microplate spectrophotometer, and data were calculated as the percentage of inhibition of growth. A concentration for 50% cellular toxicity (CC50) was defined as the concentration that reduced the optic density of treated cells by 50% relative to untreated cells.
# [2] = system: epimastigote forms of T. cruzi (Y strain); test: Antitrypanosomal assay; format: cell-based, Trypanosoma cruzi; settings: for SI (selectivity index): SI: CC50 LLMCK2 / IC50 epimastigote; for IC50: mean ± SD
# Procedure: Stock solutions of the synthetic compounds and kaurenoic acid (5, 10, 50, and 100 µg/mL) were prepared in dimethylsulfoxide with their final concentrations not exceeding 1.0%. For the assay, epimastigote forms of T. cruzi (Y strain) were harvested during the exponential phase of growth, resuspended in liver infusion tryptose broth supplemented with 10% inactivated fetal bovine serum (Gibco Invitrogen Corporation, New York, NY, USA) and plated on 24-well plates at a concentration of 1 × 10^6 cells/mL. One milliliter of diluted compounds were included in each well and incubated for 96 h at 28 °C. Cell density was determined by counting the parasites in a hemocytometer chamber (Improved Double Neubauer) under a light microscope. All assays were carried out twice, in duplicate, on separate occasions.
# [3] = Trypanosoma cruzi, 96 h, epimastigote form of T. cruzi Y strain, 96 h at 28 °C, parasite counting, read-out: Epimastigote IC50
compound,measurement,setting,value
"C=C1C[C@@]23CC[C@H]4[C@@](C)(CCC[C@@]4(C)C(=O)O)[C@@H]2CC[C@@H]1C3 [compound 1, ent-kaur-16-en-19-oic acid, reference compound]",CC50,[1],59.5 ± 0.1 µM
same,SI (selectivity index),[2],0.6
same,IC50,[2]; [3],102 µM
"C[C@@]12CCC[C@@](C)(C(=O)O)[C@H]1CC[C@@]13C[C@@H](CC[C@H]12)[C@](C)(N=C=S)C3 [compound 2, ent-Kauren-16α-isothiocyane-16β-methyl-19-oic acid]",melting point,,174 °C
same,CC50 at 96 h,[1],52 ± 0.3 µM
same,SI (selectivity index),[2],0.9
same,IC50,"[2]; Trypanosoma cruzi, 96 h, read-out: Epimastigote IC50, epimastigote form of T. cruzi Y strain, 96 h at 28 °C, parasite counting",58.4 µM
same,IC50,"[2]; read-out: Epimastigote IC50, epimastigote form of T. cruzi Y strain, 96 h at 28 °C, parasite counting",58.2 ± 0.2 µM
"C[C@@]12CCC[C@@](C)(C(=O)O)[C@H]1CC[C@@]13C[C@@H](CC[C@H]12)[C@](C)(SC#N)C3 [compound 3, ent-Kauren-16α-thiocyane-16β-methyl-19-oic acid]",melting point,,165 °C
same,CC50 at 96 h,[1],103.4 ± 0.7 µM
same,IC50,[2]; [3],43.7 µM
same,IC50,"[2]; epimastigote form of T. cruzi Y strain, 96 h at 28 °C, parasite counting, read-out: Epimastigote IC50",43.4 ± 5.6 µM
"C[C@@]12CCC[C@@](C)(C(=O)O)[C@H]1CC[C@@]13C[C@@H](CC[C@H]12)[C@](C)(NC(=S)NN)C3 [compound 4, N4-[ent-Kauren-16β-methyl-19-oic acid]-thiosemicarbazide]",melting point,,131 °C
same,CC50 at 96 h,[1],71.4 ± 0.7 µM
same,SI (selectivity index),[2],0.7
same,IC50,[2]; [3],107 ± 13 µM
"C[C@@]12CCC[C@@](C)(C(=O)O)[C@H]1CC[C@@]13C[C@@H](CC[C@H]12)[C@](C)(NC(=S)N/N=C/c1ccccc1)C3 [compound 5, N1-(E)-Phenyl-N4-[ent-kauren-16β-methyl-19-oic acid]-thiosemicarbazone]",melting point,,202 °C
same,CC50 at 96 h,[1],31.1 ± 1 µM
same,SI (selectivity index),[2],0.5
same,IC50,[2]; [3],68.2 ± 11.2 µM
"Cc1ccc(/C=N/NC(=S)N[C@]2(C)C[C@@]34CC[C@H]5[C@@](C)(CCC[C@@]5(C)C(=O)O)[C@@H]3CC[C@@H]2C4)cc1 [compound 6, N1-(E)-[4-Methylphenyl]-N4-[ent-kauren-16β-methyl-19-oic acid]-thiosemicarbazone]",melting point,,223 °C
same,CC50 at 96 h,[1],122.4 ± 1 µM
same,IC50,[2]; [3],23.4 ± 7.7 µM
"COc1ccc(/C=N/NC(=S)N[C@]2(C)C[C@@]34CC[C@H]5[C@@](C)(CCC[C@@]5(C)C(=O)O)[C@@H]3CC[C@@H]2C4)cc1 [compound 7, N1-(E)-[4-Methoxyphenyl]-N4-[ent-kauren-16β-methyl-19-oic acid]-thiosemicarbazone]",melting point,,214.5 °C
same,CC50 at 96 h,[1],78.2 µM
same,IC50,[2]; [3],16 ± 4.4 µM
"C[C@@]12CCC[C@@](C)(C(=O)O)[C@H]1CC[C@@]13C[C@@H](CC[C@H]12)[C@](C)(NC(=S)N/N=C/c1ccc(O)cc1)C3 [compound 8, N1-(E)-[4-Hydroxyphenyl]-N4-[ent-kauren-16β-methyl-19-oic acid]-thiosemicarbazone]",melting point,,191.5 °C
same,CC50 at 96 h,[1],29.5 ± 0.8 µM
same,IC50,[2]; [3],18.3 ± 4 µM
"CN(C)c1ccc(/C=N/NC(=S)N[C@]2(C)C[C@@]34CC[C@H]5[C@@](C)(CCC[C@@]5(C)C(=O)O)[C@@H]3CC[C@@H]2C4)cc1 [compound 9, N1-(E)-[4-Dimethylaminophenyl]-N4-[ent-kauren-16β-methyl-19-oic acid]-thiosemicarbazone]",melting point,,231 °C
same,CC50 at 96 h,[1],248.5 ± 0.6 µM
same,IC50,[2]; [3],79.5 ± 17.9 µM
"C[C@@]12CCC[C@@](C)(C(=O)O)[C@H]1CC[C@@]13C[C@@H](CC[C@H]12)[C@](C)(NC(=S)N/N=C/c1ccccc1[N+](=O)[O-])C3 [compound 10, N1-(E)-[2-Nitrophenyl]-N4-[ent-kauren-16β-methyl-19-oic acid]-thiosemicarbazone]",melting point,,211 °C
same,CC50 at 96 h,[1],17.1 ± 0.1 µM
same,IC50,[2]; [3],2 ± 1.1 µM
"C[C@@]12CCC[C@@](C)(C(=O)O)[C@H]1CC[C@@]13C[C@@H](CC[C@H]12)[C@](C)(NC(=S)N/N=C/c1cccc([N+](=O)[O-])c1)C3 [compound 11, N1-(E)-[3-Nitrophenyl]-N4-[ent-kauren-16β-methyl-19-oic acid]-thiosemicarbazone]",melting point,,217 °C
same,CC50 at 96 h,[1],104.8 ± 0.4 µM
same,IC50,[2]; [3],19 µM
"C[C@@]12CCC[C@@](C)(C(=O)O)[C@H]1CC[C@@]13C[C@@H](CC[C@H]12)[C@](C)(NC(=S)N/N=C/c1ccc([N+](=O)[O-])cc1)C3 [compound 12, N1-(E)-[4-Nitrophenyl]-N4-[ent-kauren-16β-methyl-19-oic acid]-thiosemicarbazone]",melting point,,219.5 °C
same,CC50 at 96 h,[1],15.2 µM
same,SI (selectivity index),[2],0.1
same,IC50,[2]; [3],117 ± 12.8 µM
"C[C@@]12CCC[C@@](C)(C(=O)O)[C@H]1CC[C@@]13C[C@@H](CC[C@H]12)[C@](C)(NC(=S)N/N=C/c1ccccc1Cl)C3 [compound 13, N1-(E)-[2-Chlorophenyl]-N4-[ent-kauren-16β-methyl-19-oic acid]-thiosemicarbazone]",melting point,,202.5 °C
same,CC50 at 96 h,[1],364 ± 11.3 µM
same,IC50,[2]; [3],39.4 ± 14.3 µM
"C[C@@]12CCC[C@@](C)(C(=O)O)[C@H]1CC[C@@]13C[C@@H](CC[C@H]12)[C@](C)(NC(=S)N/N=C/c1cccc(Cl)c1)C3 [compound 14, N1-(E)-[3-Chlorophenyl]-N4-[ent-kauren-16β-methyl-19-oic acid]-thiosemicarbazone]",melting point,,207 °C
same,CC50 at 96 h,[1],56.2 ± 0.4 µM
same,IC50,[2]; [3],23.5 ± 7 µM
"C[C@@]12CCC[C@@](C)(C(=O)O)[C@H]1CC[C@@]13C[C@@H](CC[C@H]12)[C@](C)(NC(=S)N/N=C/c1ccc(Cl)cc1)C3 [compound 15, N1-(E)-[4-Chlorophenyl]-N4-[ent-kauren-16β-methyl-19-oic acid]-thiosemicarbazone]",melting point,,223.5 °C
same,CC50 at 96 h,[1],28.7 ± 1.1 µM
same,IC50,[2]; [3],14.9 ± 0.3 µM
